The experiment deals with BDF1 mice, P1081 chloroleukemia ip, survival T/C. The experiment in a line: NCI In Vivo Anticancer Drug Screen. Data for tumor model P1081 Chloroleukemia (intraperitoneal) in B6D2F1 (BDF1) mice. Conditions: endpoint: mean survival time, higher = longer survival. The protocol:
The antitumor activity of compounds was measured in mice bearing transplantable tumors. Survival or tumor size were measured and the results are expressed as the measurement made in the treated group (T) divided by the measurement made in the vehicle treated control group (C). The tumor model used in this assay is P1081 Chloroleukemia (intraperitoneal) in B6D2F1 (BDF1) mice

[1] abbreviates: dose: 5.0 mg/kg/injection, schedule: Q01DX010 (ip), vehicle: saline.

T/C data for 9 compounds are collected here from PubChem BioAssay AID246 (DTP/NCI, 2004).

Values joined by “and” are separate entries in the source; they are usually repeats but may differ in a detail not shown here. Equal entries are not always repeated. Inconclusive results and toxic doses are left out.

In the case of `Clc1ccc(C(c2ccccc2Cl)C(Cl)Cl)cc1` (stereo unspecified), the T/C was 110 % of control (dose: 0.8 mg/kg/injection, schedule: Q01DX Z (sc), vehicle: steriod suspending solution); 117 % of control (dose: 3.1 mg/kg/injection, schedule: Q01DX Z (sc), vehicle: steriod suspending solution); 101 % of control (dose: 6.25 mg/kg/injection, schedule: Q01DX Z (sc), vehicle: steriod suspending solution); 100 % of control (dose: 12.5 mg/kg/injection, schedule: Q01DX Z (sc), vehicle: steriod suspending solution); 93 % of control and 95 % of control (dose: 25.0 mg/kg/injection, schedule: Q01DX Z (sc), vehicle: steriod suspending solution); 93 % of control (dose: 50.0 mg/kg/injection, schedule: Q01DX Z (sc), vehicle: steriod suspending solution). Further, the T/C (dose: 100.0 mg/kg/injection, schedule: Q01DX Z (sc), vehicle: steriod suspending solution) is 87 % of control.

As to `Cc1n[nH]c(=O)[nH]c1=O`, the T/C is 98 % of control (dose: 200.0 mg/kg/injection, schedule: Q01DX Z (ip), vehicle: other); 105 % of control (dose: 400.0 mg/kg/injection, schedule: Q01DX Z (ip), vehicle: other); 106 % of control and 96 % of control (dose: 800.0 mg/kg/injection, schedule: Q01DX Z (ip), vehicle: other).

Turning to `CN(C)c1ccc(/C=C/c2ccnc3ccccc23)cc1`, the T/C (dose: 1.56 mg/kg/injection, schedule: Q01DX Z (ip), vehicle: water) is 100 % of control; the T/C (dose: 3.12 mg/kg/injection, schedule: Q01DX Z (ip), vehicle: water) was 94 % of control; the T/C under setting [1] was 111 % of control and 100 % of control; the T/C (dose: 6.25 mg/kg/injection, schedule: Q01DX Z (ip), vehicle: carboxymethylcellulose (CMC)) is 110 % of control; the T/C (dose: 6.25 mg/kg/injection, schedule: Q01DX Z (ip), vehicle: water) is 101 % of control; the T/C (dose: 10.0 mg/kg/injection, schedule: Q01DX010 (ip), vehicle: saline) is 110 % of control and 100 % of control. In addition, the T/C was 115 % of control (dose: 12.5 mg/kg/injection, schedule: Q01DX Z (ip), vehicle: carboxymethylcellulose (CMC)); 107 % of control (dose: 12.5 mg/kg/injection, schedule: Q01DX Z (ip), vehicle: water); 111 % of control and 100 % of control (dose: 20.0 mg/kg/injection, schedule: Q01DX010 (ip), vehicle: saline); 102 % of control (dose: 25.0 mg/kg/injection, schedule: Q01DX Z (ip), vehicle: carboxymethylcellulose (CMC)); 111 % of control and 95 % of control (dose: 40.0 mg/kg/injection, schedule: Q01DX010 (ip), vehicle: saline); 119 % of control and 97 % of control (dose: 50.0 mg/kg/injection, schedule: Q01DX Z (ip), vehicle: carboxymethylcellulose (CMC)). Also, the T/C (dose: 100.0 mg/kg/injection, schedule: Q01DX Z (ip), vehicle: carboxymethylcellulose (CMC)) was 104 % of control.

Consider `Oc1cc(CN(CCCl)CCCl)c(O)cc1CN(CCCl)CCCl`, for which the T/C was 101 % of control (dose: 0.06 mg/kg/injection, schedule: Q01DX Z (sc), vehicle: steriod suspending solution); 109 % of control (dose: 0.12 mg/kg/injection, schedule: Q01DX Z (sc), vehicle: steriod suspending solution); 114 % of control (dose: 0.24 mg/kg/injection, schedule: Q01DX Z (sc), vehicle: steriod suspending solution); 172 % of control (dose: 0.49 mg/kg/injection, schedule: Q01DX Z (sc), vehicle: steriod suspending solution); 110 % of control and 100 % of control (dose: 0.63 mg/kg/injection, schedule: Q01DX010 (ip), vehicle: saline); 175 % of control (dose: 0.99 mg/kg/injection, schedule: Q01DX Z (sc), vehicle: steriod suspending solution). For the same compound, the T/C reads like this: (dose: 1.25 mg/kg/injection, schedule: Q01DX010 (ip), vehicle: saline) 120 % of control and 104 % of control; (dose: 2.5 mg/kg/injection, schedule: Q01DX010 (ip), vehicle: saline) 122 % of control; (dose: 3.75 mg/kg/injection, schedule: Q01DX Z (sc), vehicle: steriod suspending solution) 104 % of control; under setting [1], 115 % of control and 118 % of control; (dose: 7.5 mg/kg/injection, schedule: Q01DX Z (sc), vehicle: steriod suspending solution) 110 % of control and 101 % of control.

For `CC/C(=C(/CC)c1ccc(O)cc1)c1ccc(O)cc1`, the T/C is 100 % of control (dose: 12.5 mg/kg/injection, schedule: Q01DX010 (ip), vehicle: saline); 95 % of control (dose: 16.0 mg/kg/injection, schedule: Q01DX Z (sc), vehicle: steriod suspending solution); 100 % of control and 105 % of control (dose: 25.0 mg/kg/injection, schedule: Q01DX010 (ip), vehicle: saline); 100 % of control and 105 % of control (dose: 50.0 mg/kg/injection, schedule: Q01DX010 (ip), vehicle: saline); 88 % of control (dose: 125.0 mg/kg/injection, schedule: Q01DX Z (sc), vehicle: steriod suspending solution).

Turning to `Nc1nc(F)nc2c1ncn2C1OC(CO)C(O)C1O` (stereo unspecified), the T/C runs as follows: (dose: 0.25 mg/kg/injection, schedule: Q01DX010 (ip), vehicle: saline) 100 % of control; (dose: 0.5 mg/kg/injection, schedule: Q01DX010 (ip), vehicle: saline) 94 % of control; (dose: 1.0 mg/kg/injection, schedule: Q01DX010 (ip), vehicle: saline) 110 % of control and 100 % of control; (dose: 2.0 mg/kg/injection, schedule: Q01DX010 (ip), vehicle: saline) 111 % of control and 105 % of control; (dose: 4.0 mg/kg/injection, schedule: Q01DX010 (ip), vehicle: saline) 95 % of control.

Take `COC12C(COC(N)=O)C3=C(C(=O)C(C)=C(N)C3=O)N1CC1C2N1C` (stereo unspecified): the T/C was 123 % of control (dose: 0.63 mg/kg/injection, schedule: Q01DX Z (ip), vehicle: carboxymethylcellulose (CMC)); 107 % of control (dose: 1.25 mg/kg/injection, schedule: Q01DX Z (ip), vehicle: carboxymethylcellulose (CMC)); 112 % of control (dose: 2.5 mg/kg/injection, schedule: Q01DX Z (ip), vehicle: carboxymethylcellulose (CMC)); 152 % of control (dose: 5.0 mg/kg/injection, schedule: Q01DX Z (ip), vehicle: carboxymethylcellulose (CMC)).

Regarding `CN(Cc1cnc2nc(N)nc(N)c2n1)c1ccc(C(=O)N[C@@H](CCC(=O)O)C(=O)O)cc1`, the T/C reads like this: (dose: 0.03 mg/kg/injection, schedule: Q01DX Z (ip), vehicle: other) 160 % of control; (dose: 0.06 mg/kg/injection, schedule: Q01DX Z (ip), vehicle: other) 115 % of control; (dose: 0.07 mg/kg/injection, schedule: Q01DX Z (ip), vehicle: other) 113 % of control; (dose: 0.15 mg/kg/injection, schedule: Q01DX Z (ip), vehicle: other) 117 % of control and 122 % of control; (dose: 0.19 mg/kg/injection, schedule: Q01DX010 (ip), vehicle: other) 110 % of control and 120 % of control and 121 % of control; (dose: 0.24 mg/kg/injection, schedule: Q01DX Z (ip), vehicle: other) 189 % of control. The T/C (dose: 0.31 mg/kg/injection, schedule: Q01DX Z (ip), vehicle: other) is 111 % of control and 117 % of control; the T/C (dose: 0.38 mg/kg/injection, schedule: Q01DX010 (ip), vehicle: other) is 123 % of control; the T/C (dose: 0.47 mg/kg/injection, schedule: Q01DX Z (ip), vehicle: other) is 226 % of control; the T/C (dose: 0.62 mg/kg/injection, schedule: Q01DX Z (ip), vehicle: other) is 110 % of control and 113 % of control; the T/C (dose: 0.75 mg/kg/injection, schedule: Q01DX010 (ip), vehicle: other) is 150 % of control and 160 % of control and 170 % of control; the T/C (dose: 0.94 mg/kg/injection, schedule: Q01DX Z (ip), vehicle: other) is 92 % of control. The T/C (dose: 1.5 mg/kg/injection, schedule: Q01DX010 (ip), vehicle: other) was 187 % of control and 207 % of control and 210 % of control; the T/C (dose: 1.88 mg/kg/injection, schedule: Q01DX Z (ip), vehicle: other) is 98 % of control; the T/C (dose: 3.0 mg/kg/injection, schedule: Q01DX010 (ip), vehicle: other) was 106 % of control and 108 % of control and 105 % of control.

For `Nc1nc(=S)c2[nH]cnc2[nH]1`, the T/C (dose: 0.25 mg/kg/injection, schedule: Q01DX Z (ip), vehicle: carboxymethylcellulose (CMC)) is 169 % of control; the T/C (dose: 1.0 mg/kg/injection, schedule: Q01DX Z (ip), vehicle: carboxymethylcellulose (CMC)) is 91 % of control; the T/C (dose: 1.25 mg/kg/injection, schedule: Q01DX010 (ip), vehicle: other) is 150 % of control; the T/C (dose: 2.5 mg/kg/injection, schedule: Q01DX010 (ip), vehicle: other) was 110 % of control and 113 % of control; the T/C (dose: 5.0 mg/kg/injection, schedule: Q01DX010 (ip), vehicle: other) was 110 % of control; the T/C (dose: 31.2 micrograms/kg/injection, schedule: Q01DX Z (ip), vehicle: carboxymethylcellulose (CMC)) is 100 % of control. The T/C runs as follows: (dose: 62.5 micrograms/kg/injection, schedule: Q01DX Z (ip), vehicle: carboxymethylcellulose (CMC)) 103 % of control; (dose: 250.0 micrograms/kg/injection, schedule: Q01DX Z (ip), vehicle: carboxymethylcellulose (CMC)) 155 % of control.
